{"source": "patent US8574563B2", "about": "(Bristol-Myers Squibb Company, priority 2006, dated 2013)"}
{"system": "HCV 1b-377-neo replicon cells", "experiment": "HCV replicon assay, HCV 1b-377-neo replicon cells (1b FRET)", "format": "cell-based, Hepatitis C virus genotype 1b", "conditions": "HCV 1b-377-neo replicon cells; HCV 1b genotype", "in_short": "(§1)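 FRET-based replicon assay in HCV 1b-377-neo cells, including a comparison line carrying the NS5A Y2065H mutation that confers resistance to a reference compound.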"}
{"smiles": "COC(=O)N[C@@H](C(=O)N1CCC[C@H]1c1ncc(-c2ccc(-c3ccc(-c4cnc([C@@H]5CCCN5C(=O)[C@H](NC(=O)OC)C5CC5)[nH]4)cc3C(=O)O)cc2)[nH]1)C1CC1", "note": "[Example M115, 4,4′-bis(2-((2S)-1-((2R)-2-cyclopropyl-2-((methoxycarbonyl)amino)acetyl)-2-pyrrolidinyl)-1H-imidazol-5-yl)-2-biphenylcarboxylic acid]", "EC50 range against HCV 1b (Table 2, Range)": ">A"}
{"system": "HCV 1b-377-neo replicon cells", "experiment": "HCV replicon assay, HCV 1b-377-neo replicon cells (1b FRET)", "format": "cell-based, Hepatitis C virus genotype 1b", "conditions": "Hepatitis C virus, HCV 1b-377-neo replicon cells; HCV 1b genotype; read-out: EC50 range against HCV 1b (Table 2, Range)", "in_short": "as §1", "units": {"EC50": "nM"}}
{"smiles": "COC(=O)N[C@@H](C)C(=O)N1C[C@@H](F)C[C@H]1c1ncc(-c2ccc(-c3ccc(-c4cnc([C@@H]5C[C@H](F)CN5C(=O)[C@H](C)NC(=O)OC)[nH]4)cc3)cc2)[nH]1", "note": "[JG-13, methyl ((1S)-2-((2S,4S)-4-fluoro-2-(5-(4′-(2-((2S,4S)-4-fluoro-1-(N-(methoxycarbonyl)-L-alanyl)-2-pyrrolidinyl)-1H-imidazol-5-yl)-4-biphenylyl)-1H-imidazol-2-yl)-1-pyrrolidinyl)-1-methyl-2-oxoethyl)carbamate]", "EC50": "1 to 99"}
{"smiles": "COC(=O)N[C@H](C(=O)N1CCC[C@H]1c1nc(-c2ccc(-c3ccc(-c4c[nH]c([C@@H]5CCCN5C(=O)[C@@H](C)NC5CCOCC5)n4)cc3)cc2)c[nH]1)C(C)C", "note": "[Example F53, methyl ((1S)-2-methyl-1-(((2S)-2-(4-(4′-(2-((2S)-1-(N-(tetrahydro-2H-pyran-4-yl)-D-alanyl)-2-pyrrolidinyl)-1H-imidazol-4-yl)-4-biphenylyl)-1H-imidazol-2-yl)-1-pyrrolidinyl)carbonyl)propyl)carbamate]", "EC50": "0.001 to 0.999"}
{"smiles": "CN1CCC(C(=O)N[C@@H](C(=O)N2CCC[C@H]2c2ncc(-c3ccc(-c4ccc(-c5cnc([C@@H]6CCCN6C(=O)[C@@H]6CCCO6)[nH]5)cc4)cc3)[nH]2)c2ccccc2)CC1", "note": "[Example 114, 1-methyl-N-((1R)-2-oxo-1-phenyl-2-((2S)-2-(5-(4′-(2-((2S)-1-((2S)-tetrahydro-2-furanylcarbonyl)-2-pyrrolidinyl)-1H-imidazol-5-yl)-4-biphenylyl)-1H-imidazol-2-yl)-1-pyrrolidinyl)ethyl)-4-piperidinecarboxamide]", "EC50": "0.001 to 0.999"}
{"smiles": "CCCCOC(=O)N[C@@H](C)C(=O)N1CCC[C@H]1c1nc(-c2ccc(-c3ccc(-c4cnc([C@@H]5CCCN5C(=O)[C@H](C)NC(=O)OCCCC)[nH]4)cc3)cc2)c[nH]1", "note": "[Example F21, butyl ((1S)-2-((2S)-2-(4-(4′-(2-((2S)-1-(N-(butoxycarbonyl)-L-alanyl)-2-pyrrolidinyl)-1H-imidazol-5-yl)-4-biphenylyl)-1H-imidazol-2-yl)-1-pyrrolidinyl)-1-methyl-2-oxoethyl)carbamate]", "EC50": "100 to 999"}
{"smiles": "Cc1cc(-c2cnc([C@@H]3CCCN3C(=O)[C@@H](c3ccccc3)N(C)C)[nH]2)ccc1-c1ccc(-c2cnc([C@@H]3CCCN3C(=O)[C@@H](c3ccccc3)N(C)C)[nH]2)cn1", "note": "[Example 136, (1R)-2-((2S)-2-(5-(6-(4-(2-((2S)-1-((2R)-2-(dimethylamino)-2-phenylacetyl)-2-pyrrolidinyl)-1H-imidazol-5-yl)-2-methylphenyl)-3-pyridinyl)-1H-imidazol-2-yl)-1-pyrrolidinyl)-N,N-dimethyl-2-oxo-1-phenylethanamine]", "EC50": "0.001 to 0.999"}
{"smiles": "COC(=O)N[C@H](C(=O)N1[C@@H]2C[C@@H]2C[C@H]1c1ncc(-c2ccc(-c3ccc(-c4cnc([C@@H]5C[C@H]6C[C@H]6N5C(=O)CCCC[C@@H]5SC[C@@H]6NC(=O)N[C@@H]65)[nH]4)cc3)cc2)[nH]1)C(C)C", "note": "[Example M139]", "EC50": "0.001 to 0.999"}
{"smiles": "COC(=O)N[C@H](C(=O)N1CCC[C@H]1c1ncc(-c2ccc(-c3ccc(-c4nc([C@@H]5CCCN5C(=O)[C@@H](NC(=O)OC)C(C)C)[nH]c4CO)cc3)cc2)[nH]1)C(C)C", "note": "[Example J14f, methyl ((1S)-1-(((2S)-2-(4-(hydroxymethyl)-5-(4′-(2-((2S)-1-((2S)-2-((methoxycarbonyl)amino)-3-methylbutanoyl)-2-pyrrolidinyl)-1H-imidazol-4-yl)-4-biphenylyl)-1H-imidazol-2-yl)-1-pyrrolidinyl)carbonyl)-2-methylpropyl)carbamate]", "EC50": "0.001 to 0.999"}
{"smiles": "CC(=O)N[C@H](C(=O)N1[C@@H]2C[C@@H]2C[C@H]1c1ncc(-c2ccc(-c3ccc(-c4cnc([C@@H]5C[C@H]6C[C@H]6N5C(=O)[C@@H](NC(C)=O)C(C)C)[nH]4)cc3)cc2)[nH]1)C(C)C", "note": "[Example M140, N-((1S)-1-(((1R,3S,5R)-3-(4-(4′-(2-((1R,3S,5R)-2-((2S)-2-acetamido-3-methylbutanoyl)-2-azabicyclo[3.1.0]hex-3-yl)-1H-imidazol-4-yl)-4-biphenylyl)-1H-imidazol-2-yl)-2-azabicyclo[3.1.0]hex-2-yl)carbonyl)-2-methylpropyl)acetamide]", "EC50": "0.001 to 0.999"}
{"smiles": "CCN(CC)[C@@H](C(=O)N1CCC[C@H]1c1ncc(-c2ccc(-c3ccc(-c4cnc([C@@H]5CCCN5C(=O)[C@H](Cc5ccc(O)cc5)NC(=O)OC)[nH]4)cc3)cc2)[nH]1)c1ccccc1", "note": "[cj-112, methyl ((1S)-2-((2S)-2-(5-(4′-(2-((2S)-1-((2R)-2-(diethylamino)-2-phenylacetyl)-2-pyrrolidinyl)-1H-imidazol-5-yl)-4-biphenylyl)-1H-imidazol-2-yl)-1-pyrrolidinyl)-1-(4-hydroxybenzyl)-2-oxoethyl)carbamate]", "EC50": "0.001 to 0.999"}
{"smiles": "CN(C)[C@@H](C(=O)N1CCC[C@H]1c1ncc(-c2ccc(-c3ccc(-c4cnc([C@@H]5CCCN5C(=O)c5cccc(C(=O)c6ccccc6)c5)[nH]4)cc3)cc2)[nH]1)c1ccccc1", "note": "[Example 94-32, (3-(((2S)-2-(5-(4′-(2-((2S)-1-((2R)-2-(dimethylamino)-2-phenylacetyl)-2-pyrrolidinyl)-1H-imidazol-5-yl)-4-biphenylyl)-1H-imidazol-2-yl)-1-pyrrolidinyl)carbonyl)phenyl)(phenyl)methanone]", "EC50": "1 to 99"}
{"smiles": "COC(=O)N[C@@H](C(=O)N1CCC[C@H]1c1ncc(-c2ccc(-c3ccc(-c4cnc([C@@H]5CCCN5C(=O)Cc5ccc(C)cc5)[nH]4)cc3)cc2)[nH]1)c1ccccc1", "note": "[Example 84-70, methyl ((1R)-2-((2S)-2-(5-(4′-(2-((2S)-1-((4-methylphenyl)acetyl)-2-pyrrolidinyl)-1H-imidazol-5-yl)-4-biphenylyl)-1H-imidazol-2-yl)-1-pyrrolidinyl)-2-oxo-1-phenylethyl)carbamate]", "EC50": "1 to 99"}
{"smiles": "CCN(CC)[C@@H](C(=O)N1CCC[C@H]1c1ncc(-c2ccc(-c3ccc(-c4cnc([C@@H]5CCCN5C(=O)[C@@H]5CC[C@H](NC(=O)OC)C5)[nH]4)cc3)cc2)[nH]1)c1ccccc1", "note": "[cj-57, methyl ((1S,3R)-3-(((2S)-2-(5-(4′-(2-((2S)-1-((2R)-2-(diethylamino)-2-phenylacetyl)-2-pyrrolidinyl)-1H-imidazol-5-yl)-4-biphenylyl)-1H-imidazol-2-yl)-1-pyrrolidinyl)carbonyl)cyclopentyl)carbamate]", "EC50": "0.001 to 0.999"}
{"smiles": "O=C(Cc1cccnc1)N[C@@H](C(=O)N1CCC[C@H]1c1ncc(-c2ccc(-c3ccc(-c4cnc([C@@H]5CCCN5C(=O)[C@H](NC(=O)Cc5cccnc5)c5ccccc5)[nH]4)cc3)cc2)[nH]1)c1ccccc1", "note": "[Example 25-4, N,N′-(4,4′-biphenyldiylbis(1H-imidazole-5,2-diyl(2S)-2,1-pyrrolidinediyl((1R)-2-oxo-1-phenyl-2,1-ethanediyl)))bis(2-(3-pyridinyl)acetamide)]", "EC50": "0.001 to 0.999"}
{"smiles": "COC(=O)N[C@H](C(=O)N1CCC[C@H]1c1ncc(-c2ccc(-c3ccc(-c4cnc([C@@H]5CCCN5C(=O)[C@H](NC(=O)OC)c5ccccc5)[nH]4)c(F)c3)cc2F)[nH]1)[C@H](C)OC", "note": "[Example D65, methyl ((1S,2R)-1-(((2S)-2-(5-(3,3′-difluoro-4′-(2-((2S)-1-((2R)-2-((methoxyearbonyl)amino)-2-phenylacetyl)-2-pyrrolidinyl)-1H-imidazol-5-yl)-4-biphenylyl)-1H-imidazol-2-yl)-1-pyrrolidinyl)carbonyl)-2-methoxypropyl) carbamate bis(trifluoroacetate)]", "EC50": "0.001 to 0.999"}
{"smiles": "CC[C@H](NC(=O)OC)C(=O)N1CC2(CC2)C[C@H]1c1nc(-c2ccc(-c3ccc(-c4c[nH]c([C@@H]5CC6(CC6)CN5C(=O)[C@H](CC)NC(=O)OC)n4)cc3)cc2)c[nH]1", "note": "[Example M148, dimethyl (4,4′-biphenyldiylbis(1H-imidazole-4,2-diyl(6S)-5-azaspiro[2.4]heptane-6,5-diyl((2S)-1-oxo-1,2-butanediyl)))biscarbamate]", "EC50": "0.001 to 0.999"}
{"smiles": "O=C(Cc1ccccc1CN1CCCC1)N1CCC[C@H]1c1ncc(-c2ccc(-c3ccc(-c4cnc([C@@H]5CCCN5C(=O)[C@@H](c5ccccc5)N5CCCCC5)[nH]4)cc3)cc2)[nH]1", "note": "[Example 107-27, 1-((1R)-2-oxo-1-phenyl-2-((2S)-2-(5-(4′-(2-((2S)-1-((2-(1-pyrrolidinylmethyl)phenyl)acetyl)-2-pyrrolidinyl)-1H-imidazol-5-yl)-4-biphenylyl)-1H-imidazol-2-yl)-1-pyrrolidinyl)ethyl)piperidine]", "EC50": "0.001 to 0.999"}
{"smiles": "CC[C@H](NC(=O)OC)C(=O)N1CCC[C@H]1c1ncc(-c2ccc(-c3ccc(-c4cnc([C@@H]5CCCN5C(=O)[C@@H](NC(=O)OC)C(C)C)[nH]4)cc3)cc2)[nH]1", "note": "[Example M74, methyl ((1S)-1-(((2S)-2-(5-(4′-(2-((2S)-1-((2S)-2-((methoxycarbonyl)amino)butanoyl)-2-pyrrolidinyl)-1H-imidazol-5-yl)-4-biphenylyl)-1H-imidazol-2-yl)-1-pyrrolidinyl)carbonyl)-2-methylpropyl)carbamate]", "EC50": "1 to 99"}
{"smiles": "COC(=O)N[C@@H](C(=O)N1CCC[C@H]1c1ncc(-c2ccc(-c3ccc(-c4cnc([C@@H]5CCCN5C(=O)C5(c6ccccc6)CC5)[nH]4)cc3)cc2)[nH]1)c1ccccc1", "note": "[Example 84-77, methyl ((1R)-2-oxo-1-phenyl-2-((2S)-2-(5-(4′-(2-((2S)-1-((1-phenylcyclopropyl)carbonyl)-2-pyrrolidinyl)-1H-imidazol-5-yl)-4-biphenylyl)-1H-imidazol-2-yl)-1-pyrrolidinyl)ethyl)carbamate]", "EC50": "0.001 to 0.999"}
{"smiles": "COC(=O)N[C@H](C(=O)N1CCC[C@H]1c1ncc(-c2ccc(-c3ccc(-c4cnc([C@@H]5CCCN5C(=O)[C@@H](NC(=O)OC)C(C)C)[nH]4)cc3CN(C)C)cc2)[nH]1)C(C)C", "note": "[Example M120]", "EC50": "100 to 999"}
